The subject of assay [1] is LPS induced TNF-α production in RAW 264.7 cells. The following applies: reported by Iyori et al. 2008; cited from earlier work.
The test system is the same in assay [2]. Put plainly: LPS-induced TNF-α production in RAW 264.7 cells, ELISA of culture supernatants. The assay is classed as cell-based. The settings on record: for IC50: Mus musculus, RAW264.7. Here is the method:
Cell culture supernatants were used for the determination of TNF-α production by ELISA (R&D systems).
RAW 264.7 cells were treated with G. africanum leaf and stem extracts (200 μg/ml) for 1 hour and were then induced with LPS (10 μg/ml) for 18 hr. Cell culture supernatants were used for the determination of TNF-α production by ELISA (R&D systems).
Methanol, ethyl acetate and 95% ethanol stem extracts were further analyzed in a dose dependent manner (25-200 μg/ml).
For orientation: In an ELISA, binding on a coated surface is turned into a signal by an enzyme label.

Molecules are shown by their SMILES. Read-outs that look alike come from different tables or passages of the source.

As a reminder, the IC50 is the concentration that inhibits the measured activity by half. `Oc1ccc(/C=C/c2cc(O)cc(O)c2)cc1` [resveratrol, (E)-5-(4-hydroxystyryl)benzene-1,3-diol]: the “Inhibition of LPS induced TNF-α production” value in assay [1] is on record as “could inhibit LPS induced TNF-α production”. In addition, the 50% inhibitory concentration (IC50) was found to be 50 µM in assay [2] (resveratrol 1 μM-100 μM, 1 hour pre-treatment, LPS 10 μg/ml for 18 hr, read-out: IC50, anti-inflammatory activity of resveratrol (FIG. 3)) and 12 µg/mL in assay [2] (same value as 50 μM, restated in μg/ml, read-out: IC50, anti-inflammatory activity of resveratrol (FIG. 3), expressed by mass). The “Inhibition of LPS-induced TNF-α production” value in assay [2] (resveratrol at 50 μM and 100 μM, FIG. 3A) is recorded as “inhibited LPS-induced TNF-α production”.

Source of the values: US20140093598A1, “COMPOUNDS AND EXTRACTS FROM GNETUM AFRICANUM AND ANTI-INFLAMMATORY ACTIVITY RELATED THERETO” (PHARMAFRI-CAN INC., priority 2010, published 2014).
